Experiments:
Experiment in all cases: relative viability (nuclei count vs DMSO), 5 days (fraction); higher = more cells survive
Venetoclax + Olaparib = compound: CC1(C)CCC(CN2CCN(c3ccc(C(=O)NS(=O)(=O)c4ccc(NCC5CCOCC5)c([N+](=O)[O-])c4)c(Oc4cnc5[nH]ccc5c4)c3)CC2)=C(c2ccc(Cl)cc2)C1 [Venetoclax] + O=C(c1cc(Cc2n[nH]c(=O)c3ccccc23)ccc1F)N1CCN(C(=O)C2CC2)CC1 [Olaparib] (partner 8 µM)
How it was run: (§1)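 Lung cancer cell lines were pin-tool dosed in 1536-well plates on the day after seeding, with either a lone drug or a fixed anchor-drug dose plus five library-drug doses (not always all listed) in √10 steps. Nuclei were counted on 4× images after 5 days. Relative viability is the ratio of treated-well to vehicle-well nuclei counts, with each value a median of duplicate plates.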

Selumetinib + Trametinib = compound: Cn1cnc2c(F)c(Nc3ccc(Br)cc3Cl)c(C(=O)NOCCO)cc21 [Selumetinib] + CC(=O)Nc1cccc(-n2c(=O)n(C3CC3)c(=O)c3c(Nc4ccc(I)cc4F)n(C)c(=O)c(C)c32)c1 [Trametinib] (partner 0.02 µM)
How it was run: as §1

Selumetinib + OSI-027 = compound: Cn1cnc2c(F)c(Nc3ccc(Br)cc3Cl)c(C(=O)NOCCO)cc21 [Selumetinib] + COc1cccc2cc(-c3nc([C@H]4CC[C@H](C(=O)O)CC4)n4ncnc(N)c34)[nH]c12 [OSI-027] (partner 0.5 µM)
How it was run: as §1

Selumetinib + Crizotinib = compound: Cn1cnc2c(F)c(Nc3ccc(Br)cc3Cl)c(C(=O)NOCCO)cc21 [Selumetinib] + C[C@@H](Oc1cc(-c2cnn(C3CCNCC3)c2)cnc1N)c1c(Cl)ccc(F)c1Cl [Crizotinib] (partner 1 µM)
How it was run: as §1

Cell Line | relative viability (Venetoclax + Olaparib; first compound 0.01 µM) | relative viability (Venetoclax + Olaparib; first compound 0.03162 µM) | relative viability (Venetoclax + Olaparib; first compound 0.1 µM) | relative viability (Venetoclax + Olaparib; first compound 0.3162 µM) | relative viability (Venetoclax + Olaparib; first compound 1 µM) | relative viability (Selumetinib + Trametinib; first compound 0.02 µM) | relative viability (Selumetinib + Trametinib; first compound 0.06325 µM) | relative viability (Selumetinib + Trametinib; first compound 0.2 µM) | relative viability (Selumetinib + Trametinib; first compound 0.6325 µM) | relative viability (Selumetinib + OSI-027; first compound 0.02 µM) | relative viability (Selumetinib + OSI-027; first compound 0.06325 µM) | relative viability (Selumetinib + OSI-027; first compound 0.2 µM) | relative viability (Selumetinib + OSI-027; first compound 0.6325 µM) | relative viability (Selumetinib + Crizotinib; first compound 0.02 µM) | relative viability (Selumetinib + Crizotinib; first compound 0.06325 µM) | relative viability (Selumetinib + Crizotinib; first compound 0.2 µM) | relative viability (Selumetinib + Crizotinib; first compound 0.6325 µM)
NCI-H2347 | 0.578 | 0.558 | 0.514 | 0.633 | 0.537 | 0.264 | 0.294 | 0.287 | 0.278 | 0.412 | 0.294 | 0.255 | 0.177 | 0.771 | 0.645 | 0.42 | 0.511
RERF-LC-KJ | 0.883 | 0.839 | 0.934 | 0.935 | 0.847 | 0.911 | 0.858 | 0.887 | 0.981 | 0.535 | 0.477 | 0.526 | 0.472 | 0.844 | 0.842 | 0.788 | 0.77
NCI-H1650 | 0.763 | 0.733 | 0.994 | 0.592 | 0.745 | 0.522 | 0.458 | 0.531 | 0.577 | 0.677 | 0.405 | 0.637 | 0.548 | 0.97 | 0.863 | 0.888 | 0.786
NCI-H596 | 0.764 | 0.709 | 0.711 | 0.696 | 0.759 | 0.743 | 0.881 | 0.741 | 0.607 | 0.775 | 0.673 | 0.693 | 0.571 | 0.966 | 0.875 | 0.845 | 0.599
NCI-H1734 | 0.598 | 0.656 | 0.662 | 0.634 | 0.634 | 0.708 | 0.73 | 0.707 | 0.723 | 0.557 | 0.635 | 0.539 | 0.537 | 0.775 | 0.52 | 0.591 | 0.574
NCI-H1915 | 0.275 | 0.288 | 0.264 | 0.272 | 0.231 | 0.311 | 0.302 | 0.288 | 0.257 | 0.603 | 0.425 | 0.33 | 0.301 | 0.876 | 0.849 | 0.677 | 0.467
NCI-H838 | 0.784 | 0.758 | 0.824 | 0.776 | 0.764 | 0.482 | 0.52 | 0.529 | 0.524 | 0.31 | 0.327 | 0.315 | 0.252 | 0.783 | 0.689 | 0.634 | 0.601
HCC-15 | 0.607 | 0.754 | 0.75 | 0.68 | 0.668 | 0.403 | 0.426 | 0.332 | 0.333 | 0.522 | 0.344 | 0.256 | 0.19 | 0.669 | 0.498 | 0.395 | 0.256
NCI-H650 | 0.356 | 0.425 | 0.375 | 0.383 | 0.365 | 0.963 | 1.03 | 0.979 | 0.866 | 0.66 | 0.806 | 0.825 | 0.826 | 0.793 | 0.593 | 0.575 | 0.67
NCI-H1651 | 0.157 | 0.204 | 0.171 | 0.171 | 0.188 | 0.854 | 0.85 | 0.835 | 0.87 | 0.815 | 0.585 | 0.627 | 0.693 | 0.973 | 0.8 | 0.821 | 0.766
NCI-H2405 | 0.833 | 0.881 | 0.915 | 0.929 | 0.78 | 0.643 | 0.638 | 0.669 | 0.615 | 0.721 | 0.661 | 0.585 | 0.412 | 0.774 | 0.774 | 0.716 | 0.549
LU99A | 0.301 | 0.287 | 0.255 | 0.283 | 0.254 | 0.505 | 0.649 | 0.512 | 0.481 | 0.338 | 0.308 | 0.331 | 0.301 | 0.615 | 0.556 | 0.558 | 0.544
H3255 | 0.626 | 0.576 | 0.545 | 0.597 | 0.566 | 0.586 | 0.583 | 0.601 | 0.54 | 0.511 | 0.661 | 0.582 | 0.593 | 0.879 | 0.96 | 0.88 | 0.802
NCI-H1993 | 1.03 | 0.952 | 0.986 | 0.99 | 1.08 | 0.624 | 0.604 | 0.527 | 0.528 | 0.553 | 0.585 | 0.585 | 0.632 | 0.781 | 0.766 | 0.749 | 0.748
NCI-H322M | 0.738 | 0.799 | 0.76 | 0.764 | 0.785 | 0.458 | 0.508 | 0.496 | 0.512 | 0.487 | 0.434 | 0.477 | 0.45 | 0.708 | 0.807 | 0.796 | 0.828
